Results reported in patent US20040242498A1, “CXCR3 antagonists” (priority 2003, published 2004).
Entries after “also recorded” stand apart in the source; their conditions may differ.

Key:
[1] = Excretion of compound 101 and metabolites in urine and bile of bile duct cannulated rats; type: in vivo, Sprague Dawley rat; conditions: bile duct cannulated male rats
Procedure: In addition, compound 101 was administered intravenously or orally to bile duct cannulated male Sprague Dawley rats. Urine and bile samples were collected over a period of 24 hours and analyzed by liquid chromatography/mass spectrometry. Compound 101 was detected in a small amount (<1% of the administered dose) in urine and in bile. In urine, compound 103, the pyridyl-N-oxide of compound 101, was detected. Five metabolites, compounds 103, 105, 107, 109 and 111, were all detected in bile excretions; compound 111 was detected in a trace amount in bile. A proposed metabolic pathway for compound 101 is provided at FIG. 3.
Overall, N-oxidation and O-deethylation occurred to similar extents. The O-deethyl metabolite was detected mainly as a glucuronide conjugate, compound 109. […] Only trace amounts of the glucuronide of the N-oxidized O-deethyl metabolite, compound […], were detected. The detected metabolites, and the relative amounts thereof, in urine and bile agree with the metabolites detected with rat liver microsomal fractions and rat hepatocytes in vitro as discussed above.

[2] = test system: any cytochrome p450 isoform, including 3A4; assay: Inhibition or induction of cytochrome p450 isoforms by compound 101; type: in vitro ADME, human
[3] = Metabolites of compound 101 with human liver microsomal fractions; type: in vitro ADME; conditions: formed from compound 101 (10 μM), microsomal protein 1 mg/mL, NADPH, 37° C., 105 min, LCMS
Procedure: (§1) Compound 101 was contacted with microsomal fractions from Sprague Dawley rat, dog (beagle), rhesus monkey and human liver to detect and identify resulting metabolites. In particular, Compound 101 in PBS (10 μM) was incubated in a mixture of microsomal protein (1 mg/mL), EDTA (1.0 mM) and NADPH (5 mM) at 37° C. for a total of 105 min. The reaction was stopped by the addition of acetonitrile containing 0.2% formic acid (400 μL). Samples were centrifuged and the supernatant was subjected to LCMS analysis.
(§2) Compound 103, the pyridyl-N-oxide product of compound 101, was detected following contact with the microsomal fractions from all species. Compound 105, the deethylation product of compound 101, was also detected following contact with the microsomal fractions from all species. […] With human microsomal fractions, an amount of compound 107, the deethylation and pyridyl-N-oxide product of compound 101, was also detected.

[4] = Metabolites of compound 101 with rhesus monkey liver microsomal fractions and hepatocytes; type: in vitro ADME; conditions: formed from compound 101; liver microsomal fractions (10 μM, 105 min) or cryopreserved hepatocytes
Procedure: as §1, §2
(§3) Compound 101 was also incubated with intact dog and monkey liver cells (cryopreserved hepatocytes). Following incubation, the formation of compound 109, the glucuronide adduct of compound 105, was detected.

[5] = Metabolites of compound 101 with dog liver microsomal fractions and hepatocytes; type: in vitro ADME, dog (beagle); conditions: formed from compound 101; liver microsomal fractions (10 μM, 105 min) or cryopreserved hepatocytes
Procedure: as §1, §2, §3

[6] = Metabolites of compound 101 with rat liver microsomal fractions; type: in vitro ADME, Sprague Dawley rat; conditions: formed from compound 101 (10 μM), 105 min
Procedure: as §1, §2

[7] = compound 101 intravenously or orally, 24 hours collection
[8] = after compound 101 intravenously or orally, 24 hours, LC/MS

Compound	Amount detected in urine and in bile, of the administered dose (Rat in vivo) [1, 7] [%]	Inhibition or induction of cytochrome p450 isoforms [2]	Detection in bile [1, 8]	Detection in urine [1, 8]	Metabolic Forms of Compound 101: Rat (in vivo), excreta in which detected [1, 7]	Metabolic Forms of Compound 101: Human [3]	Metabolic Forms of Compound 101: Monkey [4]	Metabolic Forms of Compound 101: Dog [5]	Metabolic Forms of Compound 101: Rat (in vitro) [6]
CCOc1ccc(-n2c([C@@H](C)N(Cc3cccnc3)C(=O)Cc3ccc(OC(F)(F)F)cc3)nc3ncccc3c2=O)cc1 [Compound 101]	<1	little or no inhibition or induction							
CCOc1ccc(-n2c([C@@H](C)N(Cc3ccc[n+]([O-])c3)C(=O)Cc3ccc(OC(F)(F)F)cc3)nc3ncccc3c2=O)cc1 [Compound 103]			detected	detected	urine & bile	more compound 103 than compound 105; also recorded: major	more compound 103 than compound 105; also recorded: major	more compound 103 than compound 105; also recorded: major	approximately equal amounts; also recorded: major
C[C@H](c1nc2ncccc2c(=O)n1-c1ccc(O)cc1)N(Cc1cccnc1)C(=O)Cc1ccc(OC(F)(F)F)cc1 [Compound 105]			detected		bile	detected; also recorded: minor	detected; also recorded: minor	detected; also recorded: minor	approximately equal amounts; also recorded: major
C[C@H](c1nc2ncccc2c(=O)n1-c1ccc(O)cc1)N(Cc1ccc[n+]([O-])c1)C(=O)Cc1ccc(OC(F)(F)F)cc1 [Compound 107]			detected; also recorded: significant amounts		bile	detected; also recorded: minor	minor		
C[C@H](c1nc2ncccc2c(=O)n1-c1ccc(OC2OC(C(=O)O)C(O)C(O)C2O)cc1)N(Cc1cccnc1)C(=O)Cc1ccc(OC(F)(F)F)cc1 (stereo partly shown) [Compound 109]			detected; also recorded: trace amounts		bile		detected; also recorded: minor	detected; also recorded: minor	
C[C@H](c1nc2ncccc2c(=O)n1-c1ccc(OC2OC(C(=O)O)C(O)C(O)C2O)cc1)N(Cc1ccc[n+]([O-])c1)C(=O)Cc1ccc(OC(F)(F)F)cc1 (stereo partly shown) [Compound 111]			trace amount		bile (traces)				
